Read-outs that look alike come from different tables or passages of the source.
What was measured:
[1] = tested on: lsr expression in E. coli (lsr-lacZ reporter strains); assay: QS response (lsr expression): AI-2 dependent β-galactosidase production, Miller assay; format: cell-based, Escherichia coli; settings: for effect on native lsr expression (QS response): E. coli ZK126 pLW11 (luxS+), cells produce their own AI-2; for inhibition of AI-2-mediated lsr expression (β-galactosidase), in words: E. coli LW7 pLW11 (luxS−), 20 μM AI-2 (DPD) + 20 μM analog; for IC50: Escherichia coli
Description: (§1) The panel of C1-alkyl analogs was screened to identify QS modulators in the enteric bacteria E. coli and S. typhimurium. Transcription of the QS associated lsr operon, by using lsr-lacZ reporter strains (Table 2) which produce β-galactosidase in response to added AI-2 was monitored. In order to first establish if the analogs were agonists or antagonists in the QS circuit, the analogs were incubated with E. coli LW7 pLW11 and S. typhimurium MET715 (FIG. 19a-b) both of which are luxS^−. None of the analogs, except ethyl-DPD behaved as agonists for lsr expression. Previous studies investigating AI-2 antagonism in P. aeruginosa or in S. typhimurium were carried out using chemically synthesized AI-2 added to luxS^− cells. […] The same trends were obtained by adding a 1:1 ratio of enzymatically synthesized AI-2 and DPD analogs to the luxS^− strains E. coli LW7 pLW11 and S. typhimurium MET715 (FIG. 11a-b). None of the tested DPD analogs were bacteriocidal or bacteriostatic as the OD600 values of E. coli ZK126 pLW11 and S. typhimurium MET708 in the presence and absence of the analogs were similar (FIG. 10). Though the QS circuitry of the enteric organisms, E. coli and S. typhimurium are homologous they respond differently to the DPD analogs. The E. coli QS circuitry is susceptible to being silenced by a variety of DPD analogs of different shapes and sizes whereas in S. typhimurium, only a handful of DPD analogs could antagonize the action of AI-2. […] Isobutyl-DPD emerged as an effective and non-species-specific quencher; causing significant lsr expression knockdowns in both E. coli and S. typhimurium.
(§2) The QS response indicated by lsr gene expression was analyzed in pure culture studies by culturing E. coli LW7 pLW11, E. coli ZK126 pLW11 and S. typhimurium MET708, S. typhimurium MET715 overnight in LB medium supplemented with appropriate antibiotics as stated previously. These cells were then diluted into fresh LB medium (with antibiotics) and grown to an OD600 of 0.8-1.0 at 30° C., 250 rpm. Cells were then collected by centrifugation at 10,000×g for 10 minutes, and resuspended in 10 mM phosphate buffer. AI-2 (20 μM) and the respective analog (20 μM) were added to the E. coli or S. typhimurium suspension for 2 hours at 37° C. AI-2 dependent β-galactosidase production was quantified by the Miller assay.
(§3) The QS response indicated by lsr gene expression was analyzed in pure culture studies by culturing E. coli LW7 pLW11 and S. typhimurium MET715 overnight at 30° C. in LB medium supplemented with appropriate antibiotics as stated previously. These cells were then diluted into fresh LB medium (with antibiotics) and grown to an OD600 of 0.4-0.8 at 37° C., 250 rpm. Cells were then collected by centrifugation at 10,000×g for 10 min and resuspended in 10 mM phosphate buffer. AI-2 (20 μM) and the respective analog (20 μM) were added to the E. coli or S. typhimurium suspension for 2 h at 37° C. AI-2 dependent β-galactosidase production was quantified by the Miller assay.
(§4) The QS response indicated by lsr gene expression was analyzed in pure culture studies by culturing E. coli LW7 pLW11, E. coli ZK126 pLW11 and S. typhimurium MET708, S. typhimurium MET715 overnight in LB medium individually supplemented with appropriate antibiotics, as specified above. These cells were diluted into fresh LB medium (with antibiotics) and grown to an OD600 of 0.8-1.0 at 30° C., 250 rpm. Cells were collected by centrifugation at 10,000×g for 10 minutes, and resuspended in 10 mM phosphate buffer. AI-2 (20 μM) and the respective analog (20 μM) were added to the E. coli or S. typhimurium suspension for 2 hours at 37° C. AI-2 dependent β-galactosidase production was quantified by the Miller assay.

[2] = tested on: lsr expression in S. typhimurium (lsr-lacZ reporter strains); assay: as above; format: cell-based, Salmonella typhimurium; settings: for effect on AI-2-mediated lsr expression (β-galactosidase), in words: S. typhimurium MET715 (luxS−), 20 μM AI-2 (DPD) + 20 μM analog
Description: as §1, §2, §3, §4

LsrK = biological target: T1, LsrK (Escherichia coli, UniProt P77432); assay: In vitro phosphorylation of analogs by LsrK (TLC, autoradiography); format: biochemical, E. coli; settings: for phosphorylation by E. coli LsrK: incubation with LsrK in vitro for one hour (Example 6)
T1 construct: made in house; host or cells: E. coli BL21
Description: LsrK was purified and from E. coli BL21 pET200-LsrK as described before. Phosphorylated analogs were synthesized by incubating 1 μM) LsrK with 40 μM ATP (Roche), […] of [γ-^32P] […] A 5 μL aliquot was then spotted onto a cellulose TLC plate (Selecto Scientific). The plate was developed using 0.8 M LiCl as the solvent, air dried and developed via autoradiography.
LsrK was purified from E. coli BL21 pET200-LsrK as described before. Phosphorylated analogs were synthesized by incubating (1 μM) LsrK with (40 μM) ATP (Roche), ([…]) of [P^32] […] An aliquot (2.5 μL) was then spotted onto a cellulose TLC plate (Selecto Scientific). The plate was developed using 0.8 M LiCl as the solvent, air dried and developed via autoradiography.

E. coli = assay: DPD analogs and representative bacterial species affected (Table 1); format: cell-based; parameters: key: x: DPD Analogs and representative bacterial species affected
V. harveyi = assay: as above; format: cell-based; parameters: key: x: DPD Analogs and representative bacterial species affected
[3] = tested on: pre-formed E. coli biofilms (K-12 MG1655); assay: Effects on pre-formed E. coli biofilms (microfluidic flow cell, COMSTAT, optical density); format: cell-based
Description: (§5) The E. coli biofilms were formed using the strain K-12 MG1655 ATCC(47076). P. aeruginosa biofilms were formed using wild type strain PAO1. For both strains, overnight cultures were diluted to an OD600 of 0.25, introduced into the microfluidic channel, and incubated with no flow at 37° C. for 2 h. LB (Luria Bertani) growth medium was then continuously flowed into the device at a rate of 10 μL/hr. As needed, this medium was supplemented with various concentrations of analog or antibiotic at specified times. In studies of biofilm inhibition, after 2 hours of cell incubation, the analog diluted in LB medium is flown into the microfluidic channel for 48 hours at 10 μL/hr. In studies of effects on pre-formed biofilms, LB is introduced over the cells at 10 μL/hr for a period of 36 to 48 hours to yield stable biofilms. Then, the analog or analog-antibiotic combination was introduced for an additional 36 to 48 hours.
(§6) Biofilms were stained in situ for microscopy. They were first treated with a Live/Dead bacterial labeling kit (Invitrogen #L7012) in which two labeling components were mixed in a 1:1 ratio to a final volume of 10 μL. The dye was introduced into the channel at 10 μL/hr, the same flow rate as during biofilm growth. This treatment was then followed by 10 μL/hr of a 100 μg/mL calcofluor (Fluorescence Brightener 28, Sigma #F3543) solution for labeling polysaccharides contained in the biofilm matrix. The dyes are fixed by flowing in 3% paraformaldehyde at the same flow rate.
(§7) Labeled samples are imaged using a confocal microscope (Zeiss LSM710). For unpatterned coverslips, Z-stacks were obtained at 7 points in each microfluidic channel, each stack was comprised of 150 slices. For patterned coverslips used while measuring the optical density of the biofilms, two stacks were obtained in each channel (i.e. one at each pinhole). The image stacks were analyzed using COMSTAT, which provides morphological characteristics. Average biofilm thickness and biomass were averaged over the image stacks obtained at each of these 7 data points in the microfluidic channel. Additionally, surface reconstructions of the biofilms were created using Imaris (Bitplane) to aid in visualization of the resulting structures.
(§8) The data corresponding to the change in optical density of the biofilms were obtained from the photodiodes using the standard methodologies. Data for each channel (the average of the response of the two photodiodes) was normalized with respect to the optical density at 48 hours; this method reflects that as of 48 hours, the biofilms have been grown under identical conditions although their optical density values may not be identical. Additionally, since the optical density data itself fluctuates as the biofilm grows, the data for each curve was fitted using a Churchill model (Churchill et al, 1972), represented by log N=[f1^−1+f2^−1]^−1 (1)

[4] = tested on: pre-formed P. aeruginosa biofilms (PAO1); assay: Effects on pre-formed P. aeruginosa biofilms (microfluidic flow cell, COMSTAT, optical density); format: cell-based; settings: gentamicin alone
Description: as §5, §6, §7, §8

T1 sequence (P77432 whole entry): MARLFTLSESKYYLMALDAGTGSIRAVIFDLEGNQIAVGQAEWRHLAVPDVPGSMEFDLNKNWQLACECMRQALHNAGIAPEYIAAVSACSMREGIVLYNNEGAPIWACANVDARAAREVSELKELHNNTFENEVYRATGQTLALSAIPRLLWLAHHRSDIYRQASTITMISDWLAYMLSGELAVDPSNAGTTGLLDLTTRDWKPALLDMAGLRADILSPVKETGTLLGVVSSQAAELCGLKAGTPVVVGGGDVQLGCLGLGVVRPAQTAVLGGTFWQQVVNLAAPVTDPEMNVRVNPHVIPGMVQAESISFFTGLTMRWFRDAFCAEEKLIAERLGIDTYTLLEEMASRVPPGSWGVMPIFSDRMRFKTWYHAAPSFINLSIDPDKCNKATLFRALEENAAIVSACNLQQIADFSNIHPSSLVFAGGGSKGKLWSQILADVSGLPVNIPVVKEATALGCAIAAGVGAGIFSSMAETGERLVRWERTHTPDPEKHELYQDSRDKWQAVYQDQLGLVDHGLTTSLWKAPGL

2-methylpropyl-DPD
effect on native lsr expression (QS response) [1]: substantial reduction

CC(=O)C(=O)C(O)CO (stereo not shown) [AI-2, 4,5-dihydroxy-2,3-pentanedione, reference compound]
more LacZ present than without AI-2 ([2]; S. typhimurium MET715 (LuxS−), 20 μM AI-2 added): about 30%

CCCCC(=O)OCC(OC(=O)CCCC)C(=O)C(C)=O (stereo not shown) [Compound 21, 3,4-dioxopentane-1,2-diyl dipentanoate]
induction of lsr expression (β-galactosidase) ([2]; S. typhimurium MET715 (LuxS−), 20 μM compound, no AI-2 added): as effective as DPD

CC(=O)OCC(OC(C)=O)C(=O)C(=O)CC(C)C (stereo not shown) [Compound 23, 6-methyl-3,4-dioxoheptane-1,2-diyl diacetate]
inhibition of AI-2-mediated lsr expression (β-galactosidase), in words [1]: as effective QS quenchers as the unprotected isobutyl DPD

CCCC(=O)OCC(OC(=O)CCC)C(=O)C(=O)CC(C)C (stereo not shown) [Compound 24, 6-methyl-3,4-dioxoheptane-1,2-diyl dibutyrate]
inhibition of AI-2-mediated lsr expression (β-galactosidase), in words [1]: as effective QS quenchers as the unprotected isobutyl DPD

CCCCC(=O)OCC(OC(=O)CCCC)C(=O)C(=O)CC(C)C (stereo not shown) [Compound 25, 6-methyl-3,4-dioxoheptane-1,2-diyl dipentanoate]
inhibition of AI-2-mediated lsr expression (β-galactosidase), in words [1]: reduced

CCCCCC(=O)OCC(OC(=O)CCCCC)C(=O)C(=O)CC(C)C (stereo not shown) [Compound 26, 6-methyl-3,4-dioxoheptane-1,2-diyl dihexanoate]
inhibition of AI-2-mediated lsr expression (β-galactosidase), in words [1]: abrogated

O=C(C(=O)C1CCCCCC1)C(O)CO (stereo not shown) [Cycloheptyl-DPD, Cycloheptyl DPD]
inhibition of AI-2-mediated lsr expression (β-galactosidase), in words [1]: nor did they affect LsrR-controlled transcription
phosphorylation by E. coli LsrK (LsrK): Neither Cycloheptyl-DPD nor the aromatic analogs were phosphorylated
phosphorylation by E. coli LsrK (LsrK; listed as cycloheptyl): not phosphorylated

O=C(C(=O)C1CCCC1)C(O)CO (stereo not shown) [Cyclopentyl-DPD, Cyclopentyl DPD]
reduction in lsr promoter activity ([1]; E. coli LW7, 20 μM DPD + 20 uM analog): over 60%
inhibition of AI-2-mediated lsr expression (β-galactosidase), in words [1]: inhibit lsr expression
IC50 ([1]; Example 6, read-out: IC50 (lsr expression in E. coli)): 2400 nM
IC50 ([1]; concentration reducing lsr expression (β-galactosidase production) to 50% in the presence of 20 μM exogenously added synthetic DPD, read-out: IC50 of analog (nM) to inhibit QS in E. coli): 2440 nM
effect on AI-2-mediated lsr expression (β-galactosidase), in words [2]: increased expression
phosphorylation by E. coli LsrK (LsrK): significantly phosphorylated
bacterial species affected: E. coli (E. coli): x

CCCCCCC(=O)C(=O)[C@@H](O)CO [Hexyl DPD]
bacterial species affected: V. harveyi (V. harveyi): x
bacterial species affected: E. coli (E. coli): x

O=C(C(=O)C(O)CO)c1ccc([N+](=O)[O-])cc1 (stereo not shown) [Nitrophenyl-DPD, 4-nitrophenyl DPD]
inhibition of AI-2-mediated lsr expression (β-galactosidase), in words [1]: no
effect on AI-2-mediated lsr expression (β-galactosidase), in words [2]: increased QS response

CCCCCC(=O)C(=O)[C@@H](O)CO [Pentyl DPD]
bacterial species affected: V. harveyi (V. harveyi): x
bacterial species affected: E. coli (E. coli): x

O=C(C(=O)C1CC1)C(O)CO (stereo not shown) [cyclopropyl-DPD]
effect on native lsr expression (QS response) [1]: neither an lsr agonist nor antagonist
phosphorylation by LsrK (LsrK; incubation with LsrK and excess ATP for 2 hours (Example 1)): phosphorylated

O=C(C(=O)C(O)CO)c1ccc(F)cc1 (stereo not shown) [fluorophenyl, 4-fluorophenyl DPD]
inhibition of AI-2-mediated lsr expression (β-galactosidase), in words [1]: no

CC(C)(C)CC(=O)C(=O)C(O)CO (stereo not shown) [neopentyl-DPD]
effect on native lsr expression (QS response) [1]: substantial reduction

CCCC(=O)C(=O)[C@@H](O)CO [propyl-DPD]
effect on native lsr expression (QS response) [1]: significant knockdown
bacterial species affected: V. harveyi (V. harveyi): x
bacterial species affected: E. coli (E. coli): x

CH2-cyclohexyl-DPD
inhibition of AI-2-mediated lsr expression (β-galactosidase), in words [1]: attenuated lsr expression in E. coli to a lesser extent
phosphorylation by E. coli LsrK (LsrK): weakly phosphorylated
phosphorylation by E. coli LsrK (LsrK; listed as CH2-cyclohexyl): not phosphorylated

deoxy-isobutyl-DPD
effect on native lsr expression (QS response) [1]: unable to silence the lsr operon

gentamicin [reference compound]
drop of biofilm biomass ([3]; gentamicin 5 μg/ml without AI-2 analog): ~50%
average biofilm biomass ([3]; gentamicin 5 μg/ml without AI-2 analog, LB only 8.5 μm^3/μm^2): 3.5 μm^3/μm^2
average biofilm thickness ([3]; gentamicin 5 μg/ml without AI-2 analog, LB only 12 μm): 10 μm
course of biofilm optical density after 48 h, in words ([3]; gentamicin alone, continuous optical density measurement): slowed the progress of biofilm maturation
biofilm reduction [4]: ~0%
course of biofilm optical density after 48 h, in words ([4]; continuous optical density measurement): slowed the progress of biofilm maturation

— patent US8952192B2, “Phosphorylated and branched dihydroxy-pentane-dione (DPD) analogs as quorum sensing inhibitors in bacteria” (University of Maryland, College Park, priority 2011, dated 2015)
